Consider three compounds from patent US20190151304A1, “METHODS AND PHARMACEUTICAL COMPOSITIONS FOR THE TREATMENT OF AUTOIMMUNE INFLAMMATORY” (INSERM (INSTITUT NATIONAL DE LA SANTÉ ET DE LA RECHERCJAE …, priority 2016, published 2019).

The structures appear in SMILES notation.

One assay has as its system DSS-induced colitis mice. As to the kind of experiment: DSS-induced colitis mice model (Disease Activity Index, colon length). Format: in vivo, Balb/c mice. Conditions: 5% DSS in drinking water; 20 μg daily ip, one week. The source says: FIG. 2: OXA ameliorates the DAI (weight and colitis score) of DSS-induced colitis mice. Mice were orally treated with 5% DSS for 7 days in the presence or in the absence of daily intraperitoneal injection of OxA (0.22 μmoles/kg). Left, determination of gain or loss of weight in the absence of DSS treatment (Control,▴), in the presence of DSS treatment (DSS,▪) and in the presence of DSS associated to OxA treatment (DSS+OxA,●). Right, evaluation of Disease Activity Index (DAI) scored by measuring weight, length of colon, diarrhea and blood presence in the stool in DSS untreated control mice (Control,A), in DSS treated mice (DSS,▪) and in DSS treated mice associated to OxA treatment (DSS+OxA,●).
FIG. 14: Effect of daily ip inoculation of OxA, Suvorexant and Almorexant on the length of colon from DSS—(dextran sulfate sodium) treated mice mimicking the acute ulcerative colitis disease. A. Mice were treated with 5% (w/v) DSS in drinking water and daily injected with 20 μg of OxA (OXA IP), 20 μg of Suvorexant (Suvo) or 20 μg of Almorexant (Almo). Control (wt) or treated DSS mice (DSS) were daily injected with 100 μl PBS. After one week of treatment, mice were sacrificed and the length of colon which represented a good marker of inflammation state, was measured. […] B. quantification of colon length from 5 different DSS-treated mice injected with OxA (DSS+OXA IP), Almorexant (DSS+Almo), Suvorexant (DSS+Suvo) or not injected (WT and DSS). NS, no significant; *, p<0.05; ** p<0.001
Based on these observations, we have investigated the effect of Orexin A (OxA) on acute inflammation in mice treated with Dextran Sulfate Sodium (DSS). OxA was preferentially chosen in these experiments since the presence of two disulphide bridges confers it more stability. DSS induces acute colitis characterized by weight loss, bloody diarrhea, intestinal ulcerations and infiltrations with granulocytes.
DSS-induced colitis mice models: Balb/c mice were orally treated by 5% (w/v) of Dextran Sulfate Sodium (DSS) for 7 days. Orexin treatment was carried out in DSS treated mice by daily intraperitoneal injection of OxA (0.22 μmoles/kg) for 7 days. Weight and colitis symptoms (diarrhea, blood in the stool . . . ) for each mouse was daily measured. After 7 days of treatment, animals were sacrificed and colons were resected to further analyses (size, histological aspect, cytokine assays).
The inventors have thus investigated the effect of daily intraperitoneal inoculation of OxA, Suvorexant and Almorexant in the experimental context of EXAMPLE 1 (colitis). In particular they investigated the effects of the drugs on the length of colon from DSS-(dextran sulfate sodium) treated mice mimicking the acute ulcerative colitis disease. […]

Another assay addresses T1, OX1R (Homo sapiens, UniProt O43613, A280G).
T1 construct: HEK cells expressing recombinant native OX1R (HEK-OX1R); expressed in transfected cells; host or cells: HEK cells (HEK-OX1R)
T1 sequence (O43613 1-425 A280G): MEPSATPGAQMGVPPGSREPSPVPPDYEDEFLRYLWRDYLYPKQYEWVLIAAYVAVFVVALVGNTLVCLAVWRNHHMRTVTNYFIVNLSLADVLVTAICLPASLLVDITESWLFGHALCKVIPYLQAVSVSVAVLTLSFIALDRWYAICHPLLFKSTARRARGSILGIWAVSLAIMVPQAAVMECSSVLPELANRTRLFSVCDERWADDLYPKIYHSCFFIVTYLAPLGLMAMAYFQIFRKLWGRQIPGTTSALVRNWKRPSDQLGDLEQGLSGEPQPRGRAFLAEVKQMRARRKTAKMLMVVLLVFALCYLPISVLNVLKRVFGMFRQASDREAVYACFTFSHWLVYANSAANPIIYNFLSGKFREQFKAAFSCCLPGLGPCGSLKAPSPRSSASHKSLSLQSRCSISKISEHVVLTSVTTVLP
As to the kind of experiment: Ca2+ mobilization assay in HEK-OX1R cells (FluoForte). Format: cell-based. Conditions: pre-incubation 1 μM for 1 h, then 1 μM OxA.

The subject of the next assay is HEK-OX1R cells. The assay can be described thus: Cells growth determination, HEK-OX1R cells. It counts as cell-based. As to conditions: 48 hr; OxA 0.1 μM, SB408124 increasing concentrations. The protocol:
(§1) FIG. 12: Determination of the inhibition of cellular growth of HEK-OX1R cells and colon adenocarcinoma cells (HT-29) induced by 0.1 μM of OxA or various concentrations of SB408124 antagonist. HEK-OX1R cells (black column) and HT-29 cells (white column) were incubated with 0.1 μM of OxA and indicated increasing concentration of SB408124, and cells were counted after 48 hr incubation. Results are expressed as the percentage of total viable cells.
(§2) Cells growth determination and apoptosis assay: HEK-OX1R cells or colon adenocarcinoma HT-29 cells were seeded, grown and maintained at 37° C. in a humidified 5% CO2/air incubator. After 24 hr culture, cells were treated with or without Orexin-A peptide or SB408124 antagonist, previously dissolved in DMSO, to be tested at the concentration indicated in the figure legends. After 48 hr of treatment, adherent cells were harvested by Trip1E (Life Technologies, Saint Aubin, France) and manually counted. Apoptosis was determined using the Guava PCA system and the Guava nexin kit.

For assay [1], the system named is colon adenocarcinoma HT-29 cells. The assay can be described thus: Cells growth determination, HT-29 cells. Format: cell-based. As to conditions: 48 hr; OxA 0.1 μM, SB408124 increasing concentrations. Here is the method: as §1, §2
Assay [2] shares this test system. The assay can be described thus: Apoptosis assay (annexin V-PE binding, Guava nexin kit) in HT-29 cells. It counts as cell-based. As to conditions: 48 h; orexin-A 1 μM, SB408124 various concentrations. Here is the method:
FIG. 13: Effect of orexin-A and SB408124 antagonist on apoptosis in OX1R expressing colon adenocarcinoma cells, HT-29. HT-29 cells were challenged with 1 μM orexin-A or various concentration of SB408124 for 48 h. Apoptosis was measured by determination of annexin V-PE binding, and results are expressed as the percentage of apoptotic cells. Results are means±SE of three experiments. ***P<0.001.
as §2

On to `CNC(=O)[C@@H](c1ccccc1)N1CCc2cc(OC)c(OC)cc2[C@@H]1CCc1ccc(C(F)(F)F)cc1` [Almorexant], for which the “Protection from DSS induced acute ulcerative colitis (length of colon)” value in the assay on DSS-induced colitis mice was “protect mice from DSS induced acute ulcerative colitis disease”.

For `Cc1ccc(-n2nccn2)c(C(=O)N2CCN(c3nc4cc(Cl)ccc4o3)CC[C@H]2C)c1` [Suvorexant], the “Protection from DSS induced acute ulcerative colitis (length of colon)” value with DSS-induced colitis mice is on record as “protect mice from DSS induced acute ulcerative colitis disease”.

As to `Cc1cc(NC(=O)Nc2ccc(N(C)C)cc2)c2cc(F)cc(F)c2n1` [SB408124], the “Effect on OxA-induced Ca2+ mobilization in HEK-OX1R cells” value on OX1R is given as “totally abolished”. The “Inhibition of cellular growth of HEK-OX1R cells” value with HEK-OX1R cells is reported as “strong inhibition in a dose-dependent manner”. Further, the “Inhibition of cellular growth of HT-29 cells” value in assay [1] is “strong inhibition in a dose-dependent manner”. Further, the “Apoptosis in HT-29 cells” value in assay [2] was “able to induce in a dose-dependent manner cell apoptosis”.
